Source: patent US6359009B1, “Substituted anilide insecticidal agents” (BASF Aktiengesellschaft, priority 1998, dated 2002)
Where a name gives a salt, the structure may show the parent alone.

Tested on: Diabrotica virgifera virgifera Leconte, 3rd instar western corn rootworm
Assay: Evaluation against 3rd instar western corn rootworm, treated talc/soil jar test, mortality after 5 days
Type: in vivo
Conditions: mortality rating 0-9 after 5 days in soil
Description: Test solutions are prepared by dissolving the test compound in a 35% acetone in water mixture to give a concentration of 10,000 ppm. Subsequent dilutions are made with water as needed.
Diabrotica virgifera virgifera Leconte, 3rd instar western corn rootworm
One cc of fine talc is placed in a 30 mL wide-mouth screw-top glass jar. One mL of the appropriate acetone test solution is pipetted onto the talc so as to provide 1.25 mg, 0.25 mg or 0.025 mg of active ingredient per jar. The jars are set under a gentle air flow until the acetone is evaporated. The dried talc is loosened, 1 cc of millet seed is added to serve as food for the insects and 25 mL of moist soil is added to each jar. The jar is capped and the contents thoroughly mixed mechanically. Following this, ten 3rd instar rootworms are added to each jar and the jars are loosely capped to allow air exchange for the larvae. The treatments are held for 5 days when mortality counts are made. Missing larvae are presumed dead, since they decompose rapidly and can not be found.

Row | SMILES | Western Corn Rootworm (1 ppm) rating | Western Corn Rootworm (10 ppm) rating | Western Corn Rootworm (50 ppm) rating
1 | CC(C)C(=O)C(C)(Cl)C(=O)Nc1ccc(C(F)(F)F)cc1 (stereo not drawn) [Compound 31] | 0.0 | 0.0 | 4.0
2 | CCOC(C(C)C)C(C)(C)C(=O)Nc1ccc(C(F)(F)F)cc1 (stereo not drawn) [Compound 24, 3-Ethoxy-α,α,α-trifluoro-2,2,4-trimethyl-p-valerotoluidide] | 0.0 | 9.0 | 9.0
3 | CC(C)C(=O)C1(C(=O)Nc2ccc(C(F)(F)F)cc2)CC1 [Compound 25, α,α,α-Trifluoro-1-isobutyrylcyclopropanecarboxy-p-toluidide] | 0.0 | 0.0 | 7.0
4 | CC(C)C(OC=O)C(C)(C)C(=O)Nc1ccc(C(F)(F)F)cc1 (stereo not drawn) [Compound 33, α,α,α-Trifluoro-3-hydroxy-2,2,4-trimethyl-p-valerotoiuidide, formate (ester)] | 0.0 | 5.0 | 9.0
5 | CCOCOC(C(C)C)C(C)(C)C(=O)Nc1ccc(C(F)(F)F)cc1 (stereo not drawn) [Compound 17, 3-(Ethoxymethoxy)-α,α,α-trifluoro-2,2,4-trimethyl-p-valerotoluidide] | 1.0 | 9.0 | 9.0
6 | CC(C)C(OC1CCCC1)C(C)(C)C(=O)Nc1ccc(C(F)(F)F)cc1 (stereo not drawn) [Compound 26, 3-(Cyclopentyloxy)-α,α,α-trifluoro-2,2,4-trimethyl-p-valerotoluidide] | 0.0 | 0.0 | 8.0
7 | COC(C(C)C)C(C)(C)C(=O)Nc1ccc(Cl)cc1 (stereo not drawn) [Compound 28, 4′-Chloro-3-methoxy-2,2,4-trimethylvaleranilide] | 0.0 | 5.0 | 9.0
8 | CC(C)C(OS(C)(=O)=O)C(C)(C)C(=O)Nc1ccc(C(F)(F)F)cc1 (stereo not drawn) [Compound 18, α,α,α-Trifluoro-3-hydroxy-2,2,4-trimethyl-p-valerotoluidide, methanesulfonate (ester)] | 0.0 | 3.0 | 9.0
9 | CC(C)OC(C)(C)C(=O)Nc1ccc(C(F)(F)F)cc1 [Compound 30, α,α,α-Trifluoro-2-isopropoxy-2-methyl-p-propionotoluidide] | 0.0 | 9.0 | 9.0
10 | CCOCN(C(=O)C(C)(C)C(=O)C(C)C)c1ccc(C(F)(F)F)cc1 [Compound 15, N-(Ethoxymethyl)-α,α,α-trifluoro-2,2,4-trimethyl-3-oxo-p-valerotoluidide] | 8.0 | 9.0 | 9.0
11 | CC(C)C(OC(=O)CCl)C(C)(C)C(=O)Nc1ccc(C(F)(F)F)cc1 (stereo not drawn) [Compound 20, 3-Hydroxy-α,α,α-trifluoro-2,2,4-trimethyl-p-valerotoluidide, chloroacetate (ester)] | 0.0 | 5.0 | 9.0
12 | CC(C)C(=O)C(C)C(=O)Nc1ccc(C(F)(F)F)cc1 (stereo not drawn) [Compound 29, α,α,α-Trifluoro-2,4-dimethyl-3-oxo-p-valerotoluidide] | 0.0 | 0.0 | 8.5
13 | CCOC(C)(C)C(=O)Nc1ccc(C(F)(F)F)cc1 [Compound 35, 2-Ethoxy-α,α,α-trifluoro-2-methyl-p-propionotoluidide] | 0.0 | 3.0 | 9.0
